Results reported in patent publication US10633407B2, “14-membered ketolides and methods of their preparation and use” (President and Fellows of Harvard College, priority 2014, dated 2020).
Converted amounts (≈) assume the structure as drawn.

Legend:
Test in all cases: CLSI broth dilution MIC determination
Type in all cases: cell-based
E. coli ATCC 25922 = conditions: E. coli ATCC 25922; Gram-negative
Method in brief: (§1)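 Azithromycin and solithromycin were included as macrolide controls in many cases. MICs were determined by CLSI standard broth dilution.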

E. coli CTX-M-14 = conditions: Gram-negative
Method in brief: as §1

E. coli NDM-1 = conditions: Gram-negative
Method in brief: as §1

E. coli TEM-1 = conditions: E. coli TEM-1; Gram-negative
Method in brief: as §1

H. influenzae ATCC49247 = conditions: Gram-negative
Method in brief: as §1

K. pneumoniae TEM-10 = conditions: Gram-negative
S. aureus ATCC 29213 = conditions: S. aureus ATCC 29213; Gram-positive
Method in brief: as §1

S. aureus MRSA: USA100 = conditions: S. aureus MRSA: USA100; Gram-positive
Method in brief: as §1

S. aureus MRSA: USA300 = conditions: S. aureus MRSA: USA300; Gram-positive
Method in brief: as §1

S. aureus USA600, GISA = conditions: S. aureus USA600, GISA; Gram-positive
Method in brief: as §1

S. aureus erm A genotype = conditions: S. aureus erm A genotype; Gram-positive
Method in brief: as §1

S. pneumoniae ATCC 49619 = conditions: S. pneumoniae ATCC 49619; Gram-positive
Method in brief: as §1

[1] = system: S. pneumoniae erm B + mef A genotype; conditions: S. pneumoniae erm B + mef A genotype; Gram-positive
Method in brief: as §1

[2] = system: S. pneumoniae mef A genotype (second strain so labelled); conditions: Gram-positive
Method in brief: as §1

S. pyogenes ATCC 19615 = conditions: S. pyogenes ATCC 19615; Gram-positive
[3] = system: S. pyogenes Macrolide-resistant; conditions: S. pyogenes Macrolide-resistant; Gram-positive
E. faecalis ATCC 29212 = conditions: E. faecalis ATCC 29212; Gram-positive
[4] = system: E. faecalis Vancomycin-resistant; conditions: E. faecalis Vancomycin-resistant; Gram-positive
A. baumannii ATCC 19606 = conditions: A. baumannii ATCC 19606; Gram-negative
[5] = system: A. baumannii imipenem-resistant; conditions: Gram-negative
[6] = system: A. baumannii chromosomal class C; conditions: Gram-negative
A. baumannii IMP-4 = conditions: Gram-negative
K. pneumoniae ATCC 10031 = conditions: K. pneumoniae ATCC 10031; Gram-negative
K. pneumoniae KPC-2 = conditions: Gram-negative
K. pneumoniae SHV-12 = conditions: Gram-negative
P. aeruginosa ATCC 27853 = conditions: P. aeruginosa ATCC 27853; Gram-negative
[7] = system: P. aeruginosa HPA101-1477; conditions: Gram-negative
[8] = system: H. influenzae Erythro >4, Azithro 1; conditions: H. influenzae Erythro >4, Azithro 1; Gram-negative
Excerpt: MIC data was collected for the novel macrolides that this platform has produced against over 21 unique strains of B. subtilis, E. coli, S. aureus, S. pneumoniae, and H. influenzae, including several multidrug-resistant strains, with a special focus on macrolide resistant mechanisms (vide supra). […] CLSI standard procedures for broth dilution MIC determination were used. […] These genotypes can be constitutive or inducible.

| SMILES | MIC (E. coli ATCC 25922) [µg/mL] | MIC (E. coli CTX-M-14) [µg/mL] | MIC (E. coli NDM-1) [µg/mL] | MIC (E. coli TEM-1) [µg/mL] | MIC (H. influenzae ATCC49247) [µg/mL] | MIC (K. pneumoniae TEM-10) [µg/mL] | MIC (S. aureus ATCC 29213) [µg/mL] | MIC (S. aureus MRSA: USA100) [µg/mL] | MIC (S. aureus MRSA: USA300) [µg/mL] | MIC (S. aureus USA600, GISA) [µg/mL] | MIC (S. aureus erm A genotype) [µg/mL] | MIC (S. pneumoniae ATCC 49619) [µg/mL] | MIC [1] [µg/mL] | MIC [2] [µg/mL] | MIC (S. pyogenes ATCC 19615) [µg/mL] | MIC [3] [µg/mL] | MIC (E. faecalis ATCC 29212) [µg/mL] | MIC [4] [µg/mL] | MIC (A. baumannii ATCC 19606) [µg/mL] | MIC [5] [µg/mL] | also measured |
| --- | --- | --- | --- | --- | --- | --- | --- | --- | --- | --- | --- | --- | --- | --- | --- | --- | --- | --- | --- | --- | --- |
| CC[C@H]1OC(=O)[C@H](C)C(=O)[C@H](C)[C@@H](O[C@@H]2OC(C)CC(N(C)C)C2O)[C@](C)(OC)C[C@@H](C)C(=O)[C@H](C)[C@H]2N(C/C=C/Cn3cc(-c4cccc(N)n4)nn3)C(=O)O[C@]12C (some centres unmarked) [FSM-100364] | 16 (≈ 19.4 µM) | > 32 | > 32 | > 32 | 2 (≈ 2.42 µM) | 32 (≈ 38.7 µM) | < 0.0312 | > 32 | 2 (≈ 2.42 µM) | > 32 | > 32 | < 0.0312 | 0.125 | 0.25 (≈ 0.303 µM) | < 0.0312 | < 0.0312 | < 0.0312 | > 32 | 8 (≈ 9.69 µM) | 4 (≈ 4.84 µM) | MIC [6]: 8 µg/mL (≈ 9.69 µM); MIC (A. baumannii IMP-4): > 32 µg/mL; MIC (K. pneumoniae ATCC 10031): 8 µg/mL (≈ 9.69 µM); MIC (K. pneumoniae KPC-2): > 32 µg/mL; MIC (K. pneumoniae SHV-12): > 32 µg/mL; MIC (P. aeruginosa ATCC 27853): > 32 µg/mL; MIC [7]: > 32 µg/mL; MIC [8]: 0.5 µg/mL (≈ 0.605 µM) |
| CC[C@H]1OC(=O)[C@H](C)C(=O)[C@H](C)[C@@H](O[C@@H]2OC(C)CC(N(C)C)C2O)[C@](C)(OC)C[C@@H](C)C(=O)[C@H](C)[C@H]2N(CC3CC3Cn3cc(-c4cccc(N)c4)nn3)C(=O)O[C@]12C (single isomer, unassigned) [FSM-100434] | > 32 | > 32 | > 32 | > 32 | > 32 | > 32 | 0.25 (≈ 0.298 µM) | > 32 | > 32 | > 32 | > 32 | < 0.0312 | 1 | 0.125 (≈ 0.149 µM) | < 0.0312 | < 0.0312 | < 0.0312 | > 32 | 16 (≈ 19.1 µM) | 16 (≈ 19.1 µM) | MIC [6]: 16 µg/mL (≈ 19.1 µM); MIC (A. baumannii IMP-4): > 32 µg/mL; MIC (K. pneumoniae ATCC 10031): 32 µg/mL (≈ 38.1 µM); MIC (K. pneumoniae KPC-2): > 32 µg/mL; MIC (K. pneumoniae SHV-12): > 32 µg/mL; MIC (P. aeruginosa ATCC 27853): > 32 µg/mL; MIC [7]: > 32 µg/mL; MIC [8]: > 32 µg/mL |
| CC[C@H]1OC(=O)[C@@](C)(F)C(=O)[C@H](C)[C@@H](O[C@@H]2OC(C)CC(N(C)C)C2O)[C@](C)(OC)C[C@@H](C)C(=O)[C@H](C)[C@H]2N(C/C=C/Cn3nnnc3-c3ccccn3)C(=O)O[C@]12C (some centres unmarked) [FSM-100386] | 16 (≈ 19.3 µM) | > 32 | > 32 | 16 (≈ 19.3 µM) | 4 (≈ 4.82 µM) | > 32 | < 0.0312 | > 32 | 4 (≈ 4.82 µM) | > 32 | > 32 | < 0.0312 | 0.25 | 0.0625 (≈ 0.0753 µM) | < 0.0312 | 0.0625 (≈ 0.0753 µM) | < 0.0312 | > 32 | 32 (≈ 38.6 µM) | > 32 | MIC [6]: 32 µg/mL (≈ 38.6 µM); MIC (A. baumannii IMP-4): > 32 µg/mL; MIC (K. pneumoniae ATCC 10031): 8 µg/mL (≈ 9.64 µM); MIC (K. pneumoniae KPC-2): > 32 µg/mL; MIC (K. pneumoniae SHV-12): > 32 µg/mL; MIC (P. aeruginosa ATCC 27853): > 32 µg/mL; MIC [7]: > 32 µg/mL; MIC [8]: 2 µg/mL (≈ 2.41 µM) |
| CC[C@H]1OC(=O)[C@H](C)C(=O)[C@H](C)[C@@H](O[C@@H]2OC(C)CC(N(C)C)C2O)[C@](C)(OC)C[C@@H](C)C(=O)[C@H](C)[C@H]2N(CC3CC3Cn3cc(-c4cccc(N)c4)nn3)C(=O)O[C@]12C (some centres unmarked) [FSM-100429] | > 32 | > 32 | > 32 | > 32 | > 32 | > 32 | 0.125 (≈ 0.149 µM) | > 32 | > 32 | > 32 | > 32 | < 0.0312 | > 32 | 0.0625 (≈ 0.0745 µM) | < 0.0312 | < 0.0312 | < 0.0312 | > 32 | > 32 | 32 (≈ 38.1 µM) | MIC [6]: 32 µg/mL (≈ 38.1 µM); MIC (A. baumannii IMP-4): > 32 µg/mL; MIC (K. pneumoniae ATCC 10031): 32 µg/mL (≈ 38.1 µM); MIC (K. pneumoniae KPC-2): > 32 µg/mL; MIC (K. pneumoniae SHV-12): > 32 µg/mL; MIC (P. aeruginosa ATCC 27853): > 32 µg/mL; MIC [7]: > 32 µg/mL; MIC [8]: > 32 µg/mL |
| CC[C@H]1OC(=O)[C@H](C)C(=O)[C@H](C)[C@@H](O[C@@H]2OC(C)CC(N(C)C)C2O)[C@](C)(OC)C[C@@H](C)C(=O)[C@H](C)[C@H]2N(C/C=C/Cn3nnnc3-c3ccccn3)C(=O)O[C@]12C (some centres unmarked) [FSM-100376] | 8 (≈ 9.85 µM) | > 32 | > 32 | 16 (≈ 19.7 µM) | 1 (≈ 1.23 µM) | 32 (≈ 39.4 µM) | < 0.0312 | > 32 | 8 (≈ 9.85 µM) | > 32 | > 32 | < 0.0312 | 0.25 | < 0.0312 | < 0.0312 | < 0.0312 | < 0.0312 | > 32 | 16 (≈ 19.7 µM) | 32 (≈ 39.4 µM) | MIC [6]: 16 µg/mL (≈ 19.7 µM); MIC (A. baumannii IMP-4): > 32 µg/mL; MIC (K. pneumoniae ATCC 10031): 8 µg/mL (≈ 9.85 µM); MIC (K. pneumoniae KPC-2): > 32 µg/mL; MIC (K. pneumoniae SHV-12): > 32 µg/mL; MIC (P. aeruginosa ATCC 27853): 32 µg/mL (≈ 39.4 µM); MIC [7]: > 32 µg/mL; MIC [8]: 1 µg/mL (≈ 1.23 µM) |
